For one test, the system named is Aβ42. Kind of test: In vivo efficacy: brain soluble Aβ42 in non-transgenic rodents (MSD electrochemiluminescence multiplex). More on the design: species or system mouse. The following applies: dose 30 mg/kg oral dosing, brain soluble fraction, animals sacrificed after 4 h; for response vs control in vivo at 30 mg/kg: Mus musculus, po, 4 h, untreated animals (Ctrl) set at 100, read-out: Aβ42 (% vs Ctrl)_Mean. From the text:
(§1) To determine whether acute administration of an Aβ42 lowering agent would reduce Aβ42 levels in vivo, non-transgenic rodents, e.g. mice or rats were used. Animals treated with the Aβ42 lowering agent were examined and compared to those untreated or treated with vehicle and brain levels of soluble Aβ42, Aβ40, Aβ38, and Aβ37 were quantitated by Meso Scale Discovery's (MSD) electrochemiluminescence detection technology. Treatment periods varied from hours (h) to days and were adjusted based on the results of the Aβ42 lowering once a time course of onset of effect could be established.
(§2) A typical protocol for measuring Aβ42 lowering in vivo is shown but it is only one of many variations that could be used to optimize the levels of detectable Aβ. For example, Aβ42 lowering compounds were formulated in 20% of Captisol® (a sulfo-butyl ether of β-cyclodextrin) in water or 20% hydroxypropyl βcyclodextrin. The Aβ42 lowering agents were administered as a single oral dose or by any acceptable route of administration to overnight fasted animals. After 4 h, the animals were sacrificed and Aβ42 levels were analysed.
(§3) Blood was collected by decapitation and exsanguinations in EDTA-treated collection tubes. Blood was centrifuged at 1900 g for 10 minutes (min) at 4° C. and the plasma recovered and flash frozen for later analysis. The brain was removed from the cranium and hindbrain. The cerebellum was removed and the left and right hemisphere were separated. The left hemisphere was stored at −18° C. for quantitative analysis of test compound levels. The right hemisphere was rinsed with phosphate-buffered saline (PBS) buffer and immediately frozen on dry ice and stored at −80° C. until homogenization for biochemical assays.
(§4) Mouse brains from non-transgenic animals were resuspended in 8 volumes of 0.4% DEA (diethylamine)/50 mM NaCl containing protease inhibitors (Roche-11873580001 or 04693159001) per gram of tissue, e.g. for 0.158 g brain, add 1.264 ml of 0.4% DEA. All samples were homogenized in the FastPrep-24 system (MP Biomedicals) using lysing matrix D (MPBio #6913-100) at 6 m/s for 20 seconds. Homogenates were centrifuged at 20800×g for 5 min and supernatants collected. Supernatants were centrifuged at 221.300×g for 50 min. The resulting high speed supernatants were then transferred to fresh eppendorf tubes. Nine parts of supernatant were neutralized with 1 part 0.5 M Tris-HCl pH 6.8 and used to quantify Aβ.
(§5) To quantify the amount of Aβ42, Aβ40, Aβ38, and Aβ37 in the soluble fraction of the brain homogenates, simultaneous specific detection of Aβ42, Aβ40, Aβ38, and Aβ37 was performed using MSD's electro-chemiluminescence multiplex detection technology. In this assay purified monoclonal antibodies specific for Abeta37 (JRD/Aβ37/3), Abeta38 (J&JPRD/Aβ38/5), Abeta40 (JRF/cAβ40/28), and Abeta42 (JRF/cAβ42/26) were coated on MSD 4-plex plates. Briefly, the standards (a dilution of synthetic Aβ42, Aβ40, Aβ38, and Aβ37) were prepared in 1.5 ml Eppendorf tube in Ultraculture, with final concentrations ranging from 10000 to 0.3 pg/m. The samples and standards were co-incubated with Sulfo-tag labelled JRF/rAβ/2 antibody to the N-terminus of Aβ as detector antibody. 50 μl of conjugate/sample or conjugate/standards mixtures were then added to the antibody-coated plate. The plate was allowed to incubate overnight at 4° C. in order to allow formation of the antibody-amyloid complex. Following this incubation and subsequent wash steps the assay was finished by adding read buffer according to the manufacturer's instructions (Meso Scale Discovery, Gaitherburg, Md.).
(§6) The SULFO-TAG emits light upon electrochemical stimulation initiated at the electrode. MSD Sector instrument SI6000 was used for signal read-out.
In this model a Aβ42 lowering compared to untreated animals would be advantageous, in particular a Aβ42 lowering with at least 10%, more in particular a Aβ42 lowering with at least 20%. […]

The next test has as its system Aβ40. The test can be described thus: In vivo efficacy: brain soluble Aβ40 in non-transgenic rodents (MSD electrochemiluminescence multiplex). More on the design: species or system mouse. The following applies: dose 30 mg/kg oral dosing, brain soluble fraction, animals sacrificed after 4 h; for response vs control in vivo at 30 mg/kg: Mus musculus, po, 4 h, untreated animals (Ctrl) set at 100, read-out: Aβ40 (% vs Ctrl)_Mean; for Aβ40 (% vs Ctrl)_Mean: untreated animals (Ctrl) set at 100, 30 mg/kg.
Excerpt: as §1, §2, §3, §4, §5, §6
The results are shown in Table 5 (dose 30 mg/kg oral dosing) (value for untreated animals as control (Ctrl) was set at 100): […]

In the case of `Cc1cn(-c2ccc3n(c2=O)C[C@@H](C)N(CCc2cc(C(F)(F)F)cc(C(F)(F)F)c2)C3=O)cn1` [compound 50], the response vs control in vivo at 30 mg/kg in the test on Aβ42 stood at 99%; in the test on Aβ40 it was 112%.

Regarding `Cc1cn(-c2ccc3n(c2=O)CC(C)N(C(C)c2cc(C(F)(F)F)cc(C(F)(F)F)c2)C3=O)cn1.Cl` (single isomer, unassigned) [compound 112], in the test with Aβ42 (untreated animals (Ctrl) set at 100, 30 mg/kg), the “Aβ42 (% vs Ctrl)_Mean” value was 55 % vs Ctrl. Besides, in the test on Aβ40, the “Aβ40 (% vs Ctrl)_Mean” value is 82 % vs Ctrl.

For the molecule `Cc1cn(-c2ccc3n(c2=O)C[C@@H](C)N(Cc2cc(OC(C)C)nc(C(F)(F)F)c2)C3=O)cn1` [compound 128], the response vs control in vivo at 30 mg/kg stood at 60% in the test on Aβ42 and 116% with Aβ40.

Turning to `Cc1cn(-c2cc(F)c3n(c2=O)C[C@@H](C)N(Cc2cc(C(F)(F)F)cc(C(F)(F)F)c2)C3=O)cn1` [compound 158], the response vs control in vivo at 30 mg/kg in the test with Aβ42 turned out to be 97%; with Aβ40, 98%.

For the molecule `CCn1cc(C(C)N2C(=O)c3ccc(-n4cnc(C)c4)c(=O)n3CC2C)c2cc(Cl)c(F)cc21` (single isomer, unassigned) [compound 192], the response vs control in vivo at 30 mg/kg in the test with Aβ42 amounted to 39%; in the test with Aβ40 it was 44%.

Take `Cc1cn(-c2ccc3n(c2=O)C[C@@H](C)N(Cc2cc(N4CCCC4)ccc2Cl)C3=O)cn1` [compound 82]: the response vs control in vivo at 30 mg/kg in the test on Aβ42 worked out at 103%; in the test with Aβ40, 125%.

For the molecule `CCC(c1cc(OC)cc(C(F)(F)F)c1)N1C(=O)c2ccc(-n3cnc(C)c3)c(=O)n2C[C@H]1C` (single isomer, unassigned) [compound 141], the response vs control in vivo at 30 mg/kg with Aβ42 is 85%; with Aβ40, 122%.

On to `Cc1cn(-c2ccc3n(c2=O)C[C@@H](C)N(Cc2cc(OC(F)(F)F)cc(C(F)(F)F)c2)C3=O)cn1` [compound 140], for which the response vs control in vivo at 30 mg/kg in the test with Aβ42 is 42%; in the test with Aβ40, 71%.

Take `Cc1cn(-c2ccc3n(c2=O)C[C@@H](C)N(Cc2cc(CC(F)(F)F)cc(C(F)(F)F)c2)C3=O)cn1` [compound 134]: the response vs control in vivo at 30 mg/kg in the test on Aβ42 turned out to be 97%; with Aβ40, 115%.

Turning to `Cc1cn(-c2ccc3n(c2=O)C[C@@H](C)N(Cc2c[nH]c4cc(F)c(Cl)cc24)C3=O)cn1` [compound 195], the response vs control in vivo at 30 mg/kg came out at 105% in the test on Aβ42 and 135% in the test on Aβ40.

`C[C@@H]1Cn2c(ccc(-n3cnc(Cl)c3)c2=O)C(=O)N1Cc1cc(C(F)(F)F)cc(C(F)(F)F)c1` [compound 118]: the response vs control in vivo at 30 mg/kg is 92% with Aβ42 and 115% in the test on Aβ40.

In the case of `Cc1cn(-c2ccc3n(c2=O)C[C@@H](C)N(Cc2ccc(F)c(F)c2)C3=O)cn1` [compound 133], the results for the response vs control in vivo at 30 mg/kg in the test on Aβ42 and in the test on Aβ40 were 87% and 77%, respectively.

On to `Cc1cn(-c2ccc3n(c2=O)C[C@@H](C)N(Cc2cc(N4CCOC(C(F)(F)F)C4)cc(C(F)(F)F)c2)C3=O)cn1` (mixture of isomers) [compound 153], for which the response vs control in vivo at 30 mg/kg in the test with Aβ42 turned out to be 100%; in the test with Aβ40, 128%.

For the molecule `Cc1cn(-c2ccc3n(c2=O)CC(C)N(C(C)c2cn(C(C)C)c4cc(F)c(Cl)cc24)C3=O)cn1` (single isomer, unassigned) [compound 194], the figures for the response vs control in vivo at 30 mg/kg in the test on Aβ42 and in the test on Aβ40 were 39% and 43%, respectively.

Take `Cc1cn(-c2ccc3n(c2=O)CC(C)N(Cc2cc(OCC4CC4)cc(C(F)(F)F)c2)C3=O)cn1.Cl` (centres unmarked) [compound 6]: the response vs control in vivo at 30 mg/kg in the test with Aβ42 is 73%; with Aβ40, 108%.

With `Cc1cn(-c2ccc3n(c2=O)C[C@@H](C)N(Cc2cc(C4CC4)cc(C(F)(F)F)c2)C3=O)cn1` [compound 116], the figures for the response vs control in vivo at 30 mg/kg with Aβ42 and in the test on Aβ40 were 75% and 105%, respectively.

As for `CCOc1cc(C(C)N2C(=O)c3ccc(-n4cnc(C)c4)c(=O)n3C[C@H]2C)cc(C(F)(F)F)c1` (single isomer, unassigned) [compound 143], the results for the response vs control in vivo at 30 mg/kg in the test on Aβ42 and in the test with Aβ40 were 123% and 129%, respectively.

Turning to `Cc1cn(-c2ccc3n(c2=O)CC(C)N(Cc2cc(C(F)(F)F)cc(C(F)(F)F)c2)C3=O)cn1` (centres unmarked) [compound 3], the results for the response vs control in vivo at 30 mg/kg with Aβ42 and in the test with Aβ40 were 51% and 85%, respectively.

In the case of `Cc1cn(-c2ccc3n(c2=O)CCN(C(C)c2c[nH]c4cc(F)c(Cl)cc24)C3=O)cn1` (single isomer, unassigned) [compound 183], the response vs control in vivo at 30 mg/kg with Aβ42 worked out at 97%; in the test with Aβ40, 133%.

For the molecule `Cc1cn(-c2ccc3n(c2=O)CC(C)N(C(C)c2cc(C(F)(F)F)cc(C(F)(F)F)c2)C3=O)cn1.Cl` (single isomer, unassigned) [compound 111], in the test with Aβ42, the response vs control in vivo at 30 mg/kg came out at 35%. In addition, the “Aβ40 (% vs Ctrl)_Mean” value in the test on Aβ40 was determined as 52 % vs Ctrl.

As for `Cc1cn(-c2ccc3n(c2=O)C[C@@H](C)N(Cc2cc(OCC(F)(F)F)cc(C(F)(F)F)c2)C3=O)cn1` [compound 166], the results for the response vs control in vivo at 30 mg/kg in the test with Aβ42 and with Aβ40 were 64% and 107%, respectively.

Regarding `Cc1cn(-c2ccc3n(c2=O)C[C@@H](C)N(Cc2cc(Br)cc(C(F)(F)F)c2)C3=O)cn1` [compound 145], the response vs control in vivo at 30 mg/kg was 71% with Aβ42 and 92% in the test with Aβ40.

On to `Cc1cn(-c2ccc3n(c2=O)CC(C)N(C(C)c2c[nH]c4c(F)cc(Cl)cc24)C3=O)cn1` (single isomer, unassigned) [compound 219], for which the response vs control in vivo at 30 mg/kg turned out to be 76% with Aβ42 and 95% in the test on Aβ40.

As to `Cc1cn(-c2ccc3n(c2=O)CC(C)N(C(C)c2cn(C)c4cc(F)c(Cl)cc24)C3=O)cn1` (single isomer, unassigned) [compound 189], the response vs control in vivo at 30 mg/kg in the test with Aβ42 was 116%; in the test with Aβ40, 118%.

For `Cc1cn(-c2ccc3n(c2=O)C[C@@H](C)N(Cc2cc(N4CCC(C)CC4)ccc2Cl)C3=O)cn1` [compound 80], the response vs control in vivo at 30 mg/kg amounted to 148% in the test on Aβ42 and 164% in the test on Aβ40.

On to `Cc1cn(-c2ccc3n(c2=O)CCN(C(C)c2cn(C)c4cc(F)c(Cl)cc24)C3=O)cn1` (single isomer, unassigned) [compound 185], for which the values for the response vs control in vivo at 30 mg/kg in the test on Aβ42 and in the test on Aβ40 were 68% and 89%, respectively.

`COc1cccc(CN2C(=O)c3ccc(-n4cnc(C)c4)c(=O)n3C[C@H]2C)c1` [compound 132]: the response vs control in vivo at 30 mg/kg in the test with Aβ42 worked out at 104%; in the test on Aβ40 it was 121%.

`Cc1cn(-c2ccc3n(c2=O)C[C@@H](C)N(Cc2cc(CC4CC4)cc(C(F)(F)F)c2)C3=O)cn1` [compound 110]: the response vs control in vivo at 30 mg/kg with Aβ42 was determined as 88%; in the test with Aβ40, 103%.

Values taken from patent US20150141411A1, “SUBSTITUTED 3,4-DIHYDRO-2H-PYRIDO[1,2-A]PYRAZINE-1,6-DIONE DERIVATIVES USEFUL FOR THE TREATMENT OF (INTER ALIA) ALZHEIMER'S DISEASE” (Janssen Pharmaceuticals, Inc., priority 2012, published 2015).
